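All cell lines were grown in 96-well plates and treated with compound for 48 hours. At the TGI there is no net growth.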
How the values were obtained:
Experiment in all cases: NCI-60 cell line screen, 48 h
SNB-19 CNS = system: SNB-19 CNS
SK-MEL-5 melanoma = system: SK-MEL-5 melanoma
TK-10 renal = system: TK-10 renal
K-562 leukemia = system: K-562 leukemia
ACHN renal = system: ACHN renal
A549 NSCLC = system: A549 NSCLC
OVCAR-4 ovarian = system: OVCAR-4 ovarian
RXF 393 renal = system: RXF 393 renal
CCRF-CEM leukemia = system: CCRF-CEM leukemia
NCI-H522 lung = system: NCI-H522 lung
UACC-257 melanoma = system: UACC-257 melanoma
SF-295 CNS = system: SF-295 CNS
LOX IMVI melanoma = system: LOX IMVI melanoma
HOP-92 NSCLC = system: HOP-92 NSCLC
U251 CNS = system: U251 CNS
A498 renal = system: A498 renal
NCI/ADR-RES ovarian = system: NCI/ADR-RES ovarian
HS 578T breast = system: HS 578T breast
MDA-MB-231 breast = system: MDA-MB-231 breast
DU-145 prostate = system: DU-145 prostate

SMILES | TGI (SNB-19 CNS) [µM] | TGI (SK-MEL-5 melanoma) [µM] | TGI (TK-10 renal) [µM] | TGI (K-562 leukemia) [µM] | TGI (ACHN renal) [µM] | TGI (A549 NSCLC) [µM] | TGI (OVCAR-4 ovarian) [µM] | TGI (RXF 393 renal) [µM] | TGI (CCRF-CEM leukemia) [µM] | TGI (NCI-H522 lung) [µM] | TGI (UACC-257 melanoma) [µM] | TGI (SF-295 CNS) [µM] | TGI (LOX IMVI melanoma) [µM] | TGI (HOP-92 NSCLC) [µM] | TGI (U251 CNS) [µM] | TGI (A498 renal) [µM] | TGI (NCI/ADR-RES ovarian) [µM] | TGI (HS 578T breast) [µM] | TGI (MDA-MB-231 breast) [µM] | TGI (DU-145 prostate) [µM]
CCOP12(OCC)NC(=O)OC1(C(F)(F)F)c1ccccc1O2 (stereo not given) | > 100 | > 100 | > 100 | > 100 | > 100 | > 100 | > 100 | > 100 | > 100 | > 100 | > 100 | > 100 | > 100 |  |  |  |  |  |  | 
O=c1c2ccccc2nc2n1-c1ccccc1SC2 | > 100 | 86.9 | > 100 | > 100 | > 100 | > 100 | > 100 | > 100 | > 100 | 70.8 | > 100 | > 100 | > 100 | > 100 | > 100 | > 100 |  |  |  | 
O=C(c1nc2ccccc2[nH]c1=O)C(O)c1ccco1 (stereo not given) | > 100 | > 100 | > 100 | > 100 | > 100 | > 100 | > 100 | > 100 | > 100 | > 100 | > 100 | > 100 | > 100 | > 100 | > 100 |  |  |  |  | 
C=CCN1COc2c(cc3c4c(cccc24)C(=O)O3)C1 | > 100 | > 100 | 39 | 68.6 | > 10 | > 100 | > 100 | > 10 | 44.8 | 28.4 | 60.7 | > 100 | > 10 | 30.5 | > 100 | 52.1 |  |  |  | 
CCOC(=O)C1(N)CCc2[nH][nH]c(=O)c2C1 (stereo not given) | > 100 | > 100 | > 100 | > 100 | > 100 | > 100 | > 100 |  | > 100 | > 100 | > 100 | > 100 | > 100 | > 100 | > 100 | > 100 | > 100 | > 100 | > 100 | 
O=C(O)c1nc2ccc(C(F)(F)F)cc2nc1NCc1ccc(Cl)c(Cl)c1 | 25.1 | 37.5 |  | 42.1 | 30.5 | 29.7 | 51.4 |  | > 100 |  | 54.3 | 37.2 | 29.8 | 32.2 | 28.3 | 34.6 | 42.7 |  | 34.5 | 32.5
CN(C)CCCNc1ncnc2c1ncn2C1OC(CO)C(O)C1O (stereo not given) | > 100 | > 100 | > 100 | > 100 | > 100 | > 100 | > 100 | > 100 | > 100 | > 100 | > 100 | > 100 | > 100 | > 100 | > 100 | > 100 | > 100 |  | > 100 | > 100
Cc1ccc(C(c2c(O)c3ccccc3n(-c3ccccc3)c2=O)c2c(O)c3ccccc3n(-c3ccccc3)c2=O)cc1 | > 100 | > 100 | > 100 | > 100 | > 100 | > 100 | > 100 | > 100 | > 100 | > 100 |  |  | > 100 | > 100 | > 100 |  |  |  |  | 
O=C(NNC1=NCCCCN1)Nc1ccc(Cl)cc1 | > 100 | > 100 | > 100 | > 100 | > 100 | > 100 | > 100 | > 100 | > 100 | > 100 | > 100 | > 100 | > 100 | > 100 | > 100 | > 100 | > 100 | > 100 |  | 
N#CC1=C(c2ccccc2)C(=C2Nc3ccccc3N2)C2S/C(=C\c3ccccc3)C(=O)N2C1=N (stereo not given) | 11.7 | 3.3 | 4.78 | 50.5 | 10.1 | 12.9 | 6.4 |  | 6.66 | 3.52 | 15.7 | 6.21 | 3.43 | 2.67 | 5.54 | 7.73 |  |  |  | 
COC(=O)C1=COC(OC2OC(CO)C(O)C(O)C2O)C2C3CN4CCc5c([nH]c6ccccc56)C4(CC12)O3 (stereo not given) | > 100 | > 100 | > 100 | > 100 | > 100 | > 100 | > 100 | > 100 |  |  | > 100 | > 100 | > 100 |  | > 100 | > 100 | > 100 |  | > 100 | > 100
O=C1CC2(CCC3=C(O2)c2ccccc2NC(=O)C3)C(=O)c2ccccc2N1 (stereo not given) | > 100 | > 100 | > 100 | > 100 | > 100 | > 100 | > 100 | > 100 | > 100 | > 100 |  | > 100 | > 100 |  | > 100 |  |  |  |  | 
O=C1C=CC2(C=C1)CCNC1=C2C(=O)c2ccccc2C1=O |  | > 100 | > 100 | > 100 | > 100 | > 100 | > 100 | > 100 | > 100 | > 100 | > 100 | > 100 | > 100 | > 100 | > 100 | > 100 |  |  |  | 
COc1ccc2nc3c([N+](=O)[O-])ccc(NCCCN(C)C)c3c(NCCCN(C)C)c2c1 |  | 3.46 | 5.52 | 5.89 |  | 3.43 | 2.29 | 2.02 | 2.4 |  | > 10 | 3.01 | 3 | > 10 |  |  |  |  | 2.87 | > 10
O=c1cc(CSc2c(-c3ccccc3)c(=O)n(-c3ccccc3)c(=S)n2-c2ccccc2)[nH]c(=O)[nH]1 | > 100 | > 100 | > 100 | > 100 | > 100 | > 100 |  | > 100 | > 100 |  | > 100 |  |  |  | > 100 | > 100 | > 100 |  | > 100 | > 100
COc1ccc(-c2c3c(n(C4OC(COC(C)=O)C(OC(C)=O)C(OC(C)=O)C4OC(C)=O)c(=S)c2C#N)CCC3)cc1 (stereo not given) | > 100 | > 100 | > 100 | > 100 | > 100 | > 100 | > 100 | > 100 | > 100 |  | > 100 | > 100 | > 100 | 49.3 | > 100 |  | > 100 | > 100 |  | > 100
OCCCNc1ccnc2cc(Cl)ccc12 | > 100 | > 100 | > 100 | > 100 | > 100 | > 100 | > 100 | > 100 | > 100 | > 100 | > 100 | > 100 | > 100 | > 100 | > 100 | > 100 |  |  |  | 
NC(=O)/C(=N\NC(=O)C[n+]1ccccc1)C1NC(=O)NC1=O (stereo not given) | > 100 | > 100 | > 100 | > 100 | > 100 | > 100 | > 100 | > 100 | > 100 |  | > 100 | > 100 | > 100 | > 100 |  | > 100 |  |  |  | 
CCOC(=O)C(C(=O)OCC)c1ccc([N+](=O)[O-])o1 | > 100 | 31.5 | 30.8 | > 30.7 | 22.6 | 43.4 | 32.4 | 24.9 | > 22.8 | 3.26 | 28.1 | 36.8 | 9.41 | 15 | 36.8 |  |  |  |  | 
CC(=O)C1Cn2c(=O)c3cc4ccccc4cc3c(=O)n2C=C1C (stereo not given) | > 100 | > 100 | > 100 | > 100 | > 100 | > 100 | > 100 | > 100 | > 100 | > 100 | > 100 | > 100 | > 100 | > 100 | > 100 | > 100 |  |  |  | 
C[Si](C)(N[Si](C)(C)OCCc1ccccc1)OCCc1ccccc1 | > 100 | > 100 | > 100 |  | > 100 |  | > 100 | > 100 | > 100 |  | > 100 | > 100 | > 100 | > 100 | > 100 | > 100 | > 100 |  |  | > 100
C/C(CC(=O)Nc1cc(C)ccc1C)=N/N=C(N)N |  | > 100 | > 100 | > 100 | > 100 | > 100 |  | > 100 | > 100 | > 100 | > 100 | > 100 | > 100 | > 100 | > 100 | > 100 |  |  |  | 
O=C1NC(=O)C(C(=O)C(=O)Nc2ccc(Cl)cc2Cl)C(=O)N1 | > 100 | > 100 | > 100 | > 100 | > 100 | > 100 | > 100 |  | > 100 |  | > 100 | > 100 |  | > 100 | > 100 | > 100 |  |  |  | 

From PubChem BioAssay (NCI)
